Blank lines part the entries; values can stand above or below the compound they belong to.
Assays:
[1] = Effect of amount added of iodide ions on oxidation-reduction potential (ORP); type: physicochemical; conditions: sodium hypochlorite 1 mg/L as Cl2, stirred 3 minutes after potassium iodide addition
Experimental: A sodium hypochlorite aqueous solution was added to ultrapure water prepared with a prescribed pH value in sufficient amount to provide 1 mg/L as Cl2, potassium iodide was then added to the solution and stirred for 3 minutes, and the oxidation-reduction potential (ORP) was then measured. […] The oxidation-reduction potential (ORP) was measured using an ORP meter (RM-2oP) manufactured by DKK-TOA Corporation.

[2] = Effects on membrane: flux and EC rejection rate before/after contact with agent

ORP ([1]; pH 10): 359 mV
SMILES: [Na+].[O-]Cl [Reference Example 12, sodium hypochlorite]

ORP ([1]; pH 7): 638 mV
SMILES: [Na+].[O-]Cl [Reference Example 10, sodium hypochlorite]

Flux after contact ([2]; ESPA2, pH 7, after contact at CT value 30,000): 4.1 m/(d · MPa) | Flux before contact ([2]; ESPA2, pH 7, baseline before contact with agent): 2.0 m/(d · MPa)
SMILES: OCl [NaClO, sodium hypochlorite]

ORP ([1]; pH 4): 837 mV
SMILES: [Na+].[O-]Cl [Reference Example 8, sodium hypochlorite]

From patent US20260001792A1, “METHOD FOR PRODUCING SLIME-SUPPRESSING AUXILIARY AGENT FOR REVERSE OSMOSIS MEMBRANE, SLIME-SUPPRESSING AUXILIARY AGENT FOR REVERSE OSMOSIS MEMBRANE, AND WATER TREATMENT METHOD” (ORGANO CORPORATION, priority 2022, published 2026)
